The test system of series [1] is PN71 cells. The series can be described thus: Cell proliferation assay (BrdU) in PN71 cells. Format: cell-based, murine. The procedure:
(§1) Cell proliferation was assayed using the commercial ELISA kit BIOTRACK™ (RPN250, Amersham Life Sciences). The assay is based on incorporation of 5-bromo-2′-deoxyuridine (BrdU) during DNA synthesis. After treatment of cells with the tested agent for 24 hours, cells are incubated for 18 hours in the presence of 10 μM BrdU. This pyrimidine analog is incorporated into DNA and is detected using specific antibody conjugated to peroxidase following 3,3′,5′,5′-tetramethylbenzidine (TMB) as a substrate. The absorbance of the enzymatic product is measured at 450 nm.

The test system of series [2] is normal bone marrow cells. The series can be described thus: Cell proliferation assay (BrdU) in normal bone marrow cells. The series is classed as cell-based. The conditions noted are these: normal human bone marrow cells. As to the method:
as §1

With `Nc1ccn([C@@H]2O[C@H](CO)[C@@H](O)[C@@H]2O)c(=O)n1` [Cytosar, Cytarabine], the “effect on proliferation (BrdU) of PN71 cells” value in series [1] was “indiscriminately destroys”. In addition, the “effect on proliferation (BrdU) of normal bone marrow cells” value in series [2] is recorded as “indiscriminately destroys”.
